Source: US4399125A, “Novel antagonists of the antidiuretic action of arginine vasopressin” (priority 1981, dated 1983)
*1 amine or outer side, *2 acyl side, *3 side chain or, on linkers, in order; H or OH if unused. Where a SMILES comes first, the peptide text is derived from it. Bridges are numbered along the chain shown (N, C = ends). [ ]: non-standard residue; d: D form. The star is where a group is joined. X1 = O=C(CC1(S[*:2])CCCCC1)[*:1]; Propyl = CCC*; iPr = CC(C)*

What was measured:
[1] = test system: oxytocic response to oxytocin; settings: literature; cited from earlier work
[2] = test system: antidiuretic activity (urine flow); settings: prior art statement; cited from earlier work
vasoconstrictive action = settings: compared with natural vasopressins; cited from earlier work
[3] = test system: antidiuretic response to ADH (arginine vasopressin); experiment: Antagonism of the antidiuretic response to ADH (anti-antidiuretic potency) in ethanol-anesthetized water-loaded rats; settings: estimated in vivo pA2 = negative logarithm of effective dose divided by estimated volume of distribution (67 mL/kg); (n) in parentheses
Experimental: Activity as antidiuretic agonists was determined by intravenous injection of compounds being evaluated into ethanol-anesthesized water-loaded rats in accordance with Sawyer et al., Endocrinology, vol. 63 (1958) at 694.
(§1) Antagonistic potencies were determined and expressed as "effective doses" and as pA2 values. The "effective dose" is defined as the dose (in nanomoles per kilogram) that reduces the response seen from 2x units of agonist injected 20 min after the dose of antagonist to the response with 1x units of agonist.

[4] = test system: vasopressor response to AVP; experiment: Antagonism to the vasopressor response (Dyckes et al.); settings: estimated in vivo pA2 (Schild); effective dose / 67 mL/kg; (n) in parentheses
Experimental: Antagonism to the vasopressor response was estimated in accordance with Dyckes et al., J. Med. Chem., vol. 17 (1974) at 969. The values are expressed as pA2 values, defined by Schild et al., Br. J. Pharmacol., vol. 2 (1947) at 189.
as §1

[5] = test system: vasopressor response to AVP; settings: prior art statement; cited from earlier work
[6] = test system: antidiuretic response to ADH (arginine vasopressin); settings: earlier work of Manning et al. (in press); cited from earlier work

For 1-deamino-oxytocin [dOT], the “oxytocic activity (agonist / antagonist, in words)” value [1] is given as “highly potent oxytocic agonist”.
For “1-deamino[4-valine, 8-D-arginine] vasopressin [dVDAVP]”, the “antidiuretic potency / activity (in words)” value [2] is given as “highly active and selective antidiuretic peptide”.
In the case of 2-phenylalanine-8-ornithine vasopressin, the “antidiuretic potency / activity (in words)” value [2] is given as “low antidiuretic activity” and the vasoconstrictive action (vasoconstrictive action) is given as “equal to that of natural vasopressins”.
For `COc1ccc(C[C@@H]2NC(=O)CC3(CCCCC3)SSC[C@@H](C(=O)N3CCC[C@H]3C(=O)N[C@@H](CCCNC(=N)N)C(=O)NCC(N)=O)NC(=O)[C@H](CC(N)=O)NC(=O)[C@H](C(C)C)NC(=O)[C@H](Cc3ccccc3)NC2=O)cc1` [d(CH2)5 Tyr(Me) VAVP] (Y(Me)FVNCPRG-NH2; linker N-5 via X1), the “Anti-Antidiuretic pA2” value [3] was 7.35 ± 0.06 and the “Antivasopressor pA2” value [4] was 8.32 ± 0.08.
With `COc1ccc(C[C@@H]2NC(=O)CC3(CCCCC3)SSC[C@@H](C(=O)N3CCC[C@H]3C(=O)N[C@H](CCCNC(=N)N)C(=O)NCC(N)=O)NC(=O)[C@H](CC(N)=O)NC(=O)[C@H](C(C)C)NC(=O)[C@H](Cc3ccccc3)NC2=O)cc1` [d(CH2)5 Tyr(Me) VDAVP, [1-(β-mercapto-β,β-cyclopentamethylenepropionic acid), 2-O-methyltyrosine, 4-valine, 8-D-arginine] vasopressin] (Y(Me)FVNCP[dR]G-NH2; linker N-5 via X1) the “Anti-Antidiuretic pA2” value [3] was 6.68 ± 0.11 and the “Antivasopressor pA2” value [4] was 8.44 ± 0.07.
In the case of `CC(C)Oc1ccc(C[C@@H]2NC(=O)CC3(CCCCC3)SSC[C@@H](C(=O)N3CCC[C@H]3C(=O)N[C@@H](CCCNC(=N)N)C(=O)NCC(N)=O)NC(=O)[C@H](CC(N)=O)NC(=O)[C@H](C(C)C)NC(=O)[C@H](Cc3ccccc3)NC2=O)cc1` [d(CH2)5 Tyr(i-Pr) VAVP] (Y(iPr)FVNCPRG-NH2; linker N-5 via X1), the “Anti-Antidiuretic pA2” value [3] is reported as 7.32 ± 0.06 and the “Antivasopressor pA2” value [4] is reported as 8.36 ± 0.09.
For `CC(C)Oc1ccc(C[C@@H]2NC(=O)CC3(CCCCC3)SSC[C@@H](C(=O)N3CCC[C@H]3C(=O)N[C@H](CCCNC(=N)N)C(=O)NCC(N)=O)NC(=O)[C@H](CC(N)=O)NC(=O)[C@H](C(C)C)NC(=O)[C@H](Cc3ccccc3)NC2=O)cc1` [d(CH2)5 Tyr(i-Pr) VDAVP] (Y(iPr)FVNCP[dR]G-NH2; linker N-5 via X1), the “Anti-Antidiuretic pA2” value [3] was 6.88 ± 0.07 and the “Antivasopressor pA2” value [4] was 8.41 ± 0.08.
With `CCCOc1ccc(C[C@@H]2NC(=O)CC3(CCCCC3)SSC[C@@H](C(=O)N3CCC[C@H]3C(=O)N[C@@H](CCCNC(=N)N)C(=O)NCC(N)=O)NC(=O)[C@H](CC(N)=O)NC(=O)[C@H](C(C)C)NC(=O)[C@H](Cc3ccccc3)NC2=O)cc1` [d(CH2)5 Tyr(n-Pr) VAVP] (Y(Propyl)FVNCPRG-NH2; linker N-5 via X1) the “Anti-Antidiuretic pA2” value [3] was 7.29 ± 0.07 and the “Antivasopressor pA2” value [4] was 8.22 ± 0.04.
For `CCCOc1ccc(C[C@@H]2NC(=O)CC3(CCCCC3)SSC[C@@H](C(=O)N3CCC[C@H]3C(=O)N[C@H](CCCNC(=N)N)C(=O)NCC(N)=O)NC(=O)[C@H](CC(N)=O)NC(=O)[C@H](C(C)C)NC(=O)[C@H](Cc3ccccc3)NC2=O)cc1` [d(CH2)5 Tyr(n-Pr) VDAVP] (Y(Propyl)FVNCP[dR]G-NH2; linker N-5 via X1), the “Anti-Antidiuretic pA2” value [3] was 6.67 ± 0.05 and the “Antivasopressor pA2” value [4] was 7.86 ± 0.10.
With `CC(C)[C@@H]1NC(=O)[C@H](Cc2ccccc2)NC(=O)[C@@H](CCCNC(=N)N)NC(=O)CC2(CCCCC2)SSC[C@@H](C(=O)N2CCC[C@H]2C(=O)N[C@@H](CCCNC(=N)N)C(=O)NCC(N)=O)NC(=O)[C@H](CC(N)=O)NC1=O` [d(CH2)5 [D-Arg^2] VAVP, [1-(β-mercapto-β,β-cyclopentamethylenepropionic acid), 2-D-arginine, 4-valine]-arginine vasopressin] ([dR]FVNCPRG-NH2; linker N-5 via X1) the “Anti-Antidiuretic pA2” value [3] was < 5.9 and the “Antivasopressor pA2” value [4] was ~ 5.4.
In the case of `CC[C@@H](C)[C@H]1NC(=O)CC2(CCCCC2)SSC[C@@H](C(=O)N2CCC[C@H]2C(=O)N[C@@H](CCCNC(=N)N)C(=O)NCC(N)=O)NC(=O)[C@H](CC(N)=O)NC(=O)[C@H](C(C)C)NC(=O)[C@H](Cc2ccccc2)NC1=O` [d(CH2)5 [D-Ile^2] VAVP, [1-(β-mercapto-β,β-cyclopentamethylenepropionic acid), 2-D-isoleucine, 4-valine]-arginine vasopressin] ([dI]FVNCPRG-NH2; linker N-5 via X1), the “Anti-Antidiuretic pA2” value [3] is reported as 7.98 ± 0.05 and the “Antivasopressor pA2” value [4] is reported as 6.94 ± 0.08.
For `CC(C)C[C@H]1NC(=O)CC2(CCCCC2)SSC[C@@H](C(=O)N2CCC[C@H]2C(=O)N[C@@H](CCCNC(=N)N)C(=O)NCC(N)=O)NC(=O)[C@H](CC(N)=O)NC(=O)[C@H](C(C)C)NC(=O)[C@H](Cc2ccccc2)NC1=O` [d(CH2)5 [D-Leu^2] VAVP, [1-(β-mercapto-β,β-cyclopentamethylenepropionic acid), 2-D-leucine, 4-valine]-arginine vasopressin] ([dL]FVNCPRG-NH2; linker N-5 via X1), the “Anti-Antidiuretic pA2” value [3] was 7.79 ± 0.12 and the “Antivasopressor pA2” value [4] was 6.45 ± 0.09.
For `CC(C)[C@@H]1NC(=O)[C@H](Cc2ccccc2)NC(=O)[C@@H](C(C)C)NC(=O)CC2(CCCCC2)SSC[C@@H](C(=O)N2CCC[C@H]2C(=O)N[C@@H](CCCNC(=N)N)C(=O)NCC(N)=O)NC(=O)[C@H](CC(N)=O)NC1=O` [d(CH2)5 [D-Val^2] VAVP, [1-(β-mercapto-β,β-cyclopentamethylenepropionic acid), 2-D-valine, 4-valine]-arginine vasopressin] ([dV]FVNCPRG-NH2; linker N-5 via X1), the “Anti-Antidiuretic pA2” value [3] was 7.48 ± 0.06 and the “Antivasopressor pA2” value [4] was 6.41 ± 0.05.
For “[1-(β-Mercapto-β,β-cyclopentamethylenepropionic acid), 2-(O-methyl)tyrosine]-arginine vasopressin”, the “vasopressor antagonism (in words)” value [5] is given as “potent vasopressor antagonists” and the “antidiuretic potency / activity (in words)” value [2] is given as “very low antidiuretic potency”.
In the case of “[1-(β-Mercapto-β,β-cyclopentamethylenepropionic acid] arginine vasopressin”, the “vasopressor antagonism (in words)” value [5] is listed as “potent vasopressor antagonists” and the “antidiuretic potency / activity (in words)” value [2] is listed as “very low antidiuretic potency”.
For “[1-(β-mercapto-β,β-cyclopentamethylenepropionic acid), 2-D-tyrosine, 4-valine, 8-D-arginine] vasopressin [d(CH2)5 D-Tyr-VDAVP]”, the “anti-antidiuretic activity (in words)” value [6] is listed as “anti-antidiuretics”.
For “[1-(β-mercapto-β,β-cyclopentamethylenepropionic acid), 4-valine, 8-D-arginine] vasopressin”, the “vasopressor antagonism (in words)” value [5] is listed as “potent antagonists of the vasopressor response to AVP” and the “antidiuretic potency / activity (in words)” value [2] is listed as “weak antidiuretic activity”.
In the case of “[1-(β-mercapto-β,β-cyclopentamethylenepropionic acid)] oxytocin [d(CH2)5 OT]”, the “oxytocic activity (agonist / antagonist, in words)” value [1] is given as “potent antagonists of the oxytocic response to oxytocin”.
For “[1-deaminopenicillamine, 4-valine, 8-D-arginine]vasopressin”, the “vasopressor antagonism (in words)” value [5] is listed as “potent antagonists of the vasopressor response to AVP” and the “antidiuretic potency / activity (in words)” value [2] is listed as “weak antidiuretic activity”.
In the case of “[1-deaminopenicillamine] oxytocin [dPOT]”, the “oxytocic activity (agonist / antagonist, in words)” value [1] is listed as “potent antagonists of the oxytocic response to oxytocin”.
